These results are taken from ChEMBL document CHEMBL2062378, “Antimycobacterial activity: a facile three-component [3+2]-cycloaddition for the regioselective synthesis of highly functionalised dispiropyrrolidines” (Bioorg Med Chem Lett, 2012).

This experiment concerns Mycobacterium tuberculosis. The experiment in a line: Antimycobacterial activity against INH-resistant Mycobacterium tuberculosis by alamar blue broth microdilution assay. The format is functional.

SMILES strings stand for the structures. In brackets after ≈: the same amount, converted by molar mass.

The MIC90 is an inhibitory concentration at the 90% level, which refers to growth in some studies and to a panel of isolates in others. A low value points to greater potency. In turn, `CN1CC(c2cccc3c2OCO3)C2(Cc3ccccc3C2=O)C12C(=O)c1ccccc1C2=O` (stereo not drawn) yielded an MIC90 of 32.4 µM (≈ 14.6 µg/mL). This lies in the double-digit micromolar range. As to `CN1CC(c2ccc(Cl)cc2)C2(Cc3ccccc3C2=O)C12C(=O)c1ccccc1C2=O` (stereo not drawn), the MIC90 came to 24.2 µM (≈ 10.7 µg/mL). The MIC90 values of the last two compounds are within 1.5-fold of each other. For the compound `CN1CC(c2ccc(Br)cc2)C2(Cc3ccccc3C2=O)C12C(=O)c1ccccc1C2=O` (stereo not drawn), the MIC90 was found to be 21.4 µM (≈ 10.4 µg/mL). For `CN1CC(c2cncc(-c3ccc(F)cc3)c2)C2(Cc3ccccc3C2=O)C12C(=O)c1ccccc1C2=O` (stereo not drawn), the MIC90 came out at 5.12 µM (≈ 2.57 µg/mL).

Compound `CN1CC(c2ccc(OC(F)(F)F)cc2)C2(Cc3ccccc3C2=O)C12C(=O)c1ccccc1C2=O` (stereo not drawn) displayed an MIC90 of 12.2 µM (≈ 6 µg/mL). This MIC90 lies about 2.4-fold higher than the previous one. `CN(C)c1ccc(C2CN(C)C3(C(=O)c4ccccc4C3=O)C23Cc2ccccc2C3=O)cc1` (stereo not drawn) had an MIC90 of 43.3 µM (≈ 19.5 µg/mL). On to `CN1CC(c2ccc(C(=O)O)cc2)C2(Cc3ccccc3C2=O)C12C(=O)c1ccccc1C2=O` (stereo not drawn), for which the MIC90 was determined as 18.3 µM (≈ 8.26 µg/mL). This MIC90 lies about 2.4-fold lower than the previous one.

As for `CN1CC(c2ccccc2)C2(Cc3ccccc3C2=O)C12C(=O)c1ccccc1C2=O` (stereo not drawn), the MIC90 amounted to 26.2 µM (≈ 10.7 µg/mL). Compound `COc1ccc(C2CN(C)C3(C(=O)c4ccccc4C3=O)C23Cc2ccccc2C3=O)cc1` (stereo not drawn) yielded an MIC90 above 6.25 µM. Compound `CN1CC(c2cccc([N+](=O)[O-])c2)C2(Cc3ccccc3C2=O)C12C(=O)c1ccccc1C2=O` (stereo not drawn) showed an MIC90 of 16.8 µM (≈ 7.61 µg/mL). Take `CN1CC(c2ccc(C(F)(F)F)cc2)C2(Cc3ccccc3C2=O)C12C(=O)c1ccccc1C2=O` (stereo not drawn): the MIC90 turned out to be 13.6 µM (≈ 6.48 µg/mL). The MIC90 values of the last two compounds are within 1.5-fold of each other. As to `CN1CC(c2ccc(N3CCOCC3)cc2)C2(Cc3ccccc3C2=O)C12C(=O)c1ccccc1C2=O` (stereo not drawn), the MIC90 worked out at 27.2 µM (≈ 13.4 µg/mL).

As for `NNC(=O)c1ccncc1` [ISONIAZID], the MIC90 stood at 11.2 µM (≈ 1.54 µg/mL).
